Measured values: ChEMBL document CHEMBL4420074, “Small molecule inhibitors of Dusp6 and uses therefor” (2015)
The source made the active and inactive calls. The rule behind the calls is not given here.

Legend:
[1] = target: T1, Dual specificity protein phosphatase (Danio rerio) (UniProt Q7T2L8); test: Inhibition of Dusp6 in (Tg(Dusp6:d2EGFP)pt6) transgenic Zebrafish assessed as activation of FGF signaling at 5 uM by d2EGFP fluorescence based assay
T1 sequence (whole entry): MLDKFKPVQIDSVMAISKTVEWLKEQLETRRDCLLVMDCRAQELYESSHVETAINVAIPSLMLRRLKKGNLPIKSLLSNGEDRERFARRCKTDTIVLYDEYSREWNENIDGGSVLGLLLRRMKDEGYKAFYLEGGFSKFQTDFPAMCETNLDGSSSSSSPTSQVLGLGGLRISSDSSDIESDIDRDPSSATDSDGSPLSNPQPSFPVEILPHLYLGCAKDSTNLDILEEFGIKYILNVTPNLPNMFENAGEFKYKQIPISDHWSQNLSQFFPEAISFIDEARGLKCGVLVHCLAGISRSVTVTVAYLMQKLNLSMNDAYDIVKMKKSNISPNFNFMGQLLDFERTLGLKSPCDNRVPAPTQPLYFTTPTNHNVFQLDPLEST

[2] = target: T1, Dual specificity protein phosphatase (Danio rerio); test: Inhibition of Dusp6 in (Tg(Dusp6:d2EGFP);ace mutant) transgenic Zebrafish assessed as activation of FGF signaling in mid-hindbrain boundary by d2EGFP fluorescence based assay
[3] = target: T1, Dual specificity protein phosphatase (Danio rerio); test: Inhibition of Dusp6 in (Tg(Dusp6:d2EGFP)pt6) transgenic Zebrafish assessed as activation of FGF signaling by measuring increase in krox20 expression at 10 to 20 uM dosed 1 to 10-somite stage by whole mount in situ hybridization assay; format: organism-based
[4] = target: T2, Dual specificity protein phosphatase 1 (Homo sapiens) (UniProt P28562); test: Inhibition of Myc-tagged human Dusp1 expressed in TPA-stimulated human HeLa cells assessed as suppression of […] reduction in ERK phosphorylation at 0.5 to 2 uM by immunostaining based assay; format: cell-based
T2 sequence (whole entry): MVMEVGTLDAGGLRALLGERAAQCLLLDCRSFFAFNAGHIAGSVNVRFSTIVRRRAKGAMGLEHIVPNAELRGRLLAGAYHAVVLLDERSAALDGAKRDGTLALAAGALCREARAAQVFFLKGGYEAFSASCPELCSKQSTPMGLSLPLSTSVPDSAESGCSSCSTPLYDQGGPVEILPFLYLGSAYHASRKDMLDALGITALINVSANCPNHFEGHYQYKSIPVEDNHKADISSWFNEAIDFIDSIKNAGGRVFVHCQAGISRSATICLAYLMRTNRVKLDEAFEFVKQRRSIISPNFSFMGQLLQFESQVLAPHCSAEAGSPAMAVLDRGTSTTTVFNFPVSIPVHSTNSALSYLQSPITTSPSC

[5] = target: T1, Dual specificity protein phosphatase (Danio rerio); test: Inhibition of Dusp6 in (Tg(Dusp6:d2EGFP)pt6) transgenic Zebrafish assessed as activation of FGF signaling by measuring increase in sef expression at 10 to 20 uM by semi-quantitative RT-PCR analysis
[6] = species on record: Danio rerio; test: (§1) Induction of cardiac tissue expansion in Zebrafish embryos assessed as induction of heart enlargement by measuring increase in cmlc2 expression exposed to compound at larval stage followed by compound washout in next day and further incubation until embryos reached 56 hpf by in situ hybridization assay; format: functional, organism-based
[7] = target: T1, Dual specificity protein phosphatase (Danio rerio); test: Inhibition of Dusp6 in (Tg(Dusp6:d2EGFP)pt6) transgenic Zebrafish assessed as activation of FGF signaling by measuring expansion of prospective mid-hindbrain boundary at 10 to 20 uM dosed 1 to 10-somite stage by whole mount in situ hybridization assay; format: organism-based
[8] = target: T1, Dual specificity protein phosphatase (Danio rerio); test: Inhibition of Dusp6 in (Tg(Dusp6:d2EGFP)pt6) transgenic Zebrafish assessed as activation of FGF signaling by measuring increase in eng3 expression at 10 to 20 uM dosed 1 to 10-somite stage by whole mount in situ hybridization assay; format: organism-based
[9] = target: T1, Dual specificity protein phosphatase (Danio rerio); test: Inhibition of Dusp6 in (Tg(Dusp6:d2EGFP)pt6) transgenic Zebrafish assessed as activation of FGF signaling at 20 uM treated at 24 hours post fertilization and measured after 6 hrs post dose by d2EGFP fluorescence based assay relative to BCI; design: scale not given: the % may be the effect or the level left
[10] = species on record: Danio rerio; test: Inhibition of exogenous Zebrafish XFD-mediated suppression of sef expression in Zebrafish 1-cell stage embryos at 5 uM; format: functional, organism-based
[11] = target: T1, Dual specificity protein phosphatase (Danio rerio); test: Inhibition of Dusp6 in (Tg(Dusp6:d2EGFP)pt6) transgenic Zebrafish assessed as activation of FGF signaling after 2 hrs by d2EGFP fluorescence based assay
[12] = target: T3, Dual specificity protein phosphatase (Danio rerio) (UniProt Q6PBT4); test: Inhibition of Dusp5 in Zebrafish 1-cell stage embryos assessed as rescue of Zebrafish dusp5-mediated suppression of sef expression at 5 uM
T3 sequence (whole entry): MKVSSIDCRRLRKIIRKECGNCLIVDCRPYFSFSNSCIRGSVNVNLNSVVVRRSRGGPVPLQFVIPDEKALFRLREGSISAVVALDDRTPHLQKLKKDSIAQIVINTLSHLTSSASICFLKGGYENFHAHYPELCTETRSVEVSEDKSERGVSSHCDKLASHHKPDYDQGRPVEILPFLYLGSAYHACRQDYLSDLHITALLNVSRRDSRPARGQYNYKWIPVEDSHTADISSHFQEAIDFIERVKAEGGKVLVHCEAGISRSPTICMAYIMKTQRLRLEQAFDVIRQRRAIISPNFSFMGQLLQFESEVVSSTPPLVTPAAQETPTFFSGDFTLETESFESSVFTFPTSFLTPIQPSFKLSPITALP

[13] = species on record: Danio rerio; test: Induction of cardiac tissue expansion in Zebrafish embryos exposed to compound at larval stage followed by compound washout in next day and further incubation until embryos reached 56 hpf; format: functional, organism-based
[14] = target: T4, Dual specificity protein phosphatase 6 (Homo sapiens) (UniProt Q16828); test: Inhibition of Myc-tagged human Dusp6 expressed in TPA-stimulated human HeLa cells assessed as suppression of Dusp6-induced reduction in ERK phosphorylation by immunostaining based assay; format: cell-based
T4 sequence (whole entry): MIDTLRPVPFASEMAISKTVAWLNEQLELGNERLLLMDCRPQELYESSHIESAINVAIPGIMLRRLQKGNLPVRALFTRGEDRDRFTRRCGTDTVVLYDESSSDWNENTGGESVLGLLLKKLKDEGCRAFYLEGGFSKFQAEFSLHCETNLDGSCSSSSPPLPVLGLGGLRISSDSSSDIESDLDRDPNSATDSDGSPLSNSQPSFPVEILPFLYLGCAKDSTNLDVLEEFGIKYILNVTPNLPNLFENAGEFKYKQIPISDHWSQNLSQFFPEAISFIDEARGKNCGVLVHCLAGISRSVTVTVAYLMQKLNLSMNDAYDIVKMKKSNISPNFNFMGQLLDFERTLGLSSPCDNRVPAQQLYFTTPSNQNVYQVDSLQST

[15] = target: T1, Dual specificity protein phosphatase (Danio rerio); test: Inhibition of Dusp6 in (Tg(Dusp6:d2EGFP)pt6) transgenic Zebrafish assessed as activation of FGF signaling by measuring increase in dusp6 expression at 10 to 20 uM dosed 1 to 10-somite stage by whole mount in situ hybridization assay; format: organism-based
[16] = target: T1, Dual specificity protein phosphatase (Danio rerio); test: Inhibition of Dusp6 in Zebrafish assessed as assessed as activation of FGF signaling by measuring reduction in ETSRP expression relative to control
[17] = species on record: Danio rerio; test: as §1, with “VHMC” for “cmlc2”; format: functional, organism-based
[18] = target: T1, Dual specificity protein phosphatase (Danio rerio); test: Inhibition of Dusp6 in (Tg(Dusp6:d2EGFP)pt6) transgenic Zebrafish assessed as activation of FGF signaling by measuring increase in ntl expression within notochord and tail bud at 6-somite stage at 10 to 20 uM dosed prior to gastrulation by whole mount in situ hybridization assay; format: organism-based
[19] = target: T1, Dual specificity protein phosphatase (Danio rerio); test: Inhibition of Dusp6 in (Tg(Dusp6:d2EGFP)pt6) transgenic Zebrafish assessed as activation of FGF signaling by measuring increase in spry4 expression at 10 to 20 uM by semi-quantitative RT-PCR analysis
[20] = species on record: Danio rerio; test: Induction of cardiac tissue expansion in Zebrafish embryos exposed to compound at post 1 and 8-somite stages followed by compound washout in next day and further incubation until embryos reached 56 hpf; format: functional, organism-based
[21] = species on record: Danio rerio; test: Inhibition of exogenous Zebrafish spry4-mediated suppression of sef expression in Zebrafish 1-cell stage embryos at 5 uM; format: functional, organism-based
[22] = target: T1, Dual specificity protein phosphatase (Danio rerio); test: Inhibition of Dusp6 in (Tg(Dusp6:d2EGFP)pt6) transgenic Zebrafish assessed as activation of FGF signaling by measuring expansion of rhombomere-4 and tail bud at 10 to 20 uM dosed 1 to 10-somite stage by whole mount in situ hybridization assay; format: organism-based
[23] = target: T4, Dual specificity protein phosphatase 6 (Homo sapiens); test: Inhibition of recombinant His-tagged Dusp6 (unknown origin) assessed as reduction in basal Dusp6 activity at 100 uM using OMFP substrate by fluorescence based assay
[24] = target: T4, Dual specificity protein phosphatase 6 (Homo sapiens); test: Inhibition of recombinant His-tagged Dusp6 (unknown origin) assessed as suppression of […] dephosphorylation at 100 uM incubated for 60 mins by immunoblotting
[25] = target: T1, Dual specificity protein phosphatase (Danio rerio); test: Inhibition of Dusp6 in Zebrafish 1-cell stage embryos assessed as rescue of Zebrafish dusp6-mediated suppression of sef expression at 5 uM
[26] = species on record: Danio rerio; test: Induction of cardiac tissue expansion in ventricular tissue of Zebrafish embryos exposed to compound at larval stage followed by compound washout in next day and further incubation until embryos reached 56 hpf; format: functional, organism-based
[27] = species on record: Danio rerio; test: Induction of cardiac tissue expansion in Zebrafish embryos exposed to compound at 1 and 8-somite stages followed by compound washout in next day and further incubation until embryos reached 56 hpf; format: functional, organism-based
[28] = target: T4, Dual specificity protein phosphatase 6 (Homo sapiens); test: Inhibition of Myc-tagged human Dusp6 expressed in TPA-stimulated human HeLa cells assessed as suppression of Dusp6-induced reduction in ERK phosphorylation at 0.5 to 2 uM by immunostaining based assay; format: cell-based
[29] = Toxicity in (Tg(Dusp6:d2EGFP)pt6) transgenic Zebrafish assessed as induction of embryo death at 40 uM incubated for 24 hrs; design: species or system Danio rerio; conditions: in vivo
[30] = Toxicity in (Tg(Dusp6:d2EGFP)pt6) transgenic Zebrafish assessed as induction of embryo death at >10 uM incubated for 24 hrs; design: species or system Danio rerio; conditions: in vivo
[31] = Toxicity in (Tg(Dusp6:d2EGFP)pt6) transgenic Zebrafish assessed as induction of embryo death at 20 uM incubated for 24 hrs; design: species or system Danio rerio; conditions: in vivo, other: incubation
[32] = Toxicity in (Tg(Dusp6:d2EGFP)pt6) transgenic Zebrafish assessed as induction of tail necrosis at >10 uM incubated for 24 hrs; design: species or system Danio rerio; conditions: in vivo
[33] = target: T1, Dual specificity protein phosphatase (Danio rerio); test: Inhibition of Dusp6 in (Tg(Dusp6:d2EGFP)pt6) transgenic Zebrafish assessed as activation of FGF signaling at 20 uM by d2EGFP fluorescence based assay
[34] = target: Dual specificity protein phosphatase 6 (Homo sapiens) (UniProt Q16828); test: Inhibition of recombinant His-tagged Dusp6 (unknown origin) assessed as suppression of […] dephosphorylation at 1 mM incubated for 60 mins by immunoblotting
[35] = Toxicity in (Tg(Dusp6:d2EGFP)pt6) transgenic Zebrafish assessed as induction of embryo death at 10 uM incubated for 24 hrs; design: species or system Danio rerio; conditions: in vivo, other: incubation

Compound: O=C1/C(=C/c2ccccc2)C(NC2CCCCC2)c2ccccc21 (stereo in doubt; form 1) [listing 1 of 2 here]
- inhibition [1]: Active
- inhibition [2]: inactive
- inhibition [3]: Active
- inhibition [4]: Active
- inhibition [5]: Active
- Activity [6]: Active
- inhibition [7]: Active
- inhibition [8]: Active
- Activity [9]: 100%
- inhibition [10]: inactive
- inhibition [11]: Dose-dependent effect
- inhibition [12]: inactive
- Activity [13]: Dose-dependent effect
- inhibition [14]: Active
- inhibition [15]: Active
- inhibition [16]: Active
- Activity [17]: Active
- inhibition [18]: Active
- inhibition [19]: Active
- Activity [20]: inactive
- inhibition [21]: inactive
- inhibition [22]: Active
- inhibition [23]: inactive
- inhibition [24]: Active
- inhibition [25]: Active
- Activity [26]: Active
- Activity [27]: Active
- inhibition [28]: Active

Compound: O=C1/C(=C/c2ccccc2)C(NC2CCCCC2)c2cc(Br)ccc21 (stereo not drawn)
- Activity [29]: Non-Toxic

Compound: O=C1/C(=C/c2ccccc2)C(NC2CCCCC2)c2ccccc21 (stereo in doubt; form 1) [listing 2 of 2 here]
- Activity [30]: Toxic
- mortality at 24 h, 20 µM [31]: 100%
- Activity [32]: Toxic

Compound: O=C1/C(=C/c2ccccc2)C(NC2CCCCC2)c2ccccc21 (stereo in doubt; form 2)
- Activity [9]: 82%

Compound: O=C1N[C@H]2[C@H](CS[C@H]2CCCCC(=O)N[C@H]2CC[C@H](NC3/C(=C\c4ccccc4)C(=O)c4ccccc43)CC2)N1 (stereo partly drawn)
- Activity [9]: inactive

Compound: CC(C)(C)OC(=O)N[C@H]1CC[C@H](NC2/C(=C\c3ccccc3)C(=O)c3ccccc32)CC1 (stereo partly drawn)
- Activity [9]: inactive

Compound: O=C1CC(NC2CCCCC2)c2ccccc21 (stereo not drawn)
- inhibition [4]: inactive
- inhibition [33]: inactive
- inhibition [24]: inactive
- inhibition [28]: inactive

Compound: O=C1/C(=C/c2ccccc2)Cc2ccccc21
- inhibition [33]: inactive

Compound: N#Cc1ccc2c(c1)C(NC1CCCCC1)/C(=C\c1ccccc1)C2=O (stereo not drawn)
- Activity [9]: inactive

Compound: SODIUM ORTHOVANAD
- inhibition [34]: Active

Compound: O=C1/C(=C/c2ccccc2)C(N2CCOCC2)c2ccccc21 (stereo not drawn)
- mortality at 24 h, 10 µM [35]: 100%
